What was measured:
Assay type in all cases: cell-based
Kir3.1/Kir3.2 = molecular target: T1, Kir3.1/Kir3.2 (Homo sapiens, UniProt P48051+P48549); assay: Activation of human GIRK1/2 expressed in HEK293 cells co-expressing rat mGlu8 by thallium flux assay
T1 sequence (P48549 whole entry): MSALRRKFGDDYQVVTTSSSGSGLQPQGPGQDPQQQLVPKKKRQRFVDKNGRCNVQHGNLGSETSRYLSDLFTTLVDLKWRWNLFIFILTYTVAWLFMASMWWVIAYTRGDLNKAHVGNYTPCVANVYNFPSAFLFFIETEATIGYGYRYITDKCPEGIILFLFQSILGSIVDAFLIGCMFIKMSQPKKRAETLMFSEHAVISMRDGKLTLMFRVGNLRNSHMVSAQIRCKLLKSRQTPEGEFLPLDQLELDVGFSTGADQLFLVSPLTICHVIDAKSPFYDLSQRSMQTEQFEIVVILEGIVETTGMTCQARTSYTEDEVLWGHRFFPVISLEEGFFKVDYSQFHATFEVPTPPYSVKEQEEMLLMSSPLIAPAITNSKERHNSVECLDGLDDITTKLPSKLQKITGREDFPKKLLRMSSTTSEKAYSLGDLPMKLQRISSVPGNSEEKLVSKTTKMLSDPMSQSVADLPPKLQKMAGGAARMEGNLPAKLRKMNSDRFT
T1 sequence (P48051 whole entry): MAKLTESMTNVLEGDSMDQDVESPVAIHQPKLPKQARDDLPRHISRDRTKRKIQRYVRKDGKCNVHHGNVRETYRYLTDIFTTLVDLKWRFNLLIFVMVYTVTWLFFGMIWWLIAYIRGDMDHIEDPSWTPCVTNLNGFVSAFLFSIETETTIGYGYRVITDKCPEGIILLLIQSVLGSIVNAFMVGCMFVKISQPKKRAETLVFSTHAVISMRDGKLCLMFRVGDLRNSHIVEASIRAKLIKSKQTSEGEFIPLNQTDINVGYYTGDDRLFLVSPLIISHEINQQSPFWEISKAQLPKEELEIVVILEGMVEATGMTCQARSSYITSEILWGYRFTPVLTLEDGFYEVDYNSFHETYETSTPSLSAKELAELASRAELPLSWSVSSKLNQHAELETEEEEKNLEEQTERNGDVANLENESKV

[1] = molecular target: Kir3.1/Kir3.2 (Homo sapiens) (UniProt P48549+P48051); assay: Activation of human GIRK1/2 expressed in HEK293 cells co-expressing rat mGlu8 by thallium flux assay relative to control
[2] = molecular target: Kir3.1/Kir3.4 (Homo sapiens) (UniProt P48549+P48544); assay: Activation of human GIRK1/4 expressed in HEK293 cells co-expressing rat mGlu8 by thallium flux assay relative to control
Kir3.1/Kir3.4 = molecular target: T2, Kir3.1/Kir3.4 (Homo sapiens, UniProt P48544+P48549); assay: Activation of human GIRK1/4 expressed in HEK293 cells co-expressing rat mGlu8 by thallium flux assay
T2 sequence (P48549 whole entry): T1 sequence (P48549 whole entry)
T2 sequence (P48544 whole entry): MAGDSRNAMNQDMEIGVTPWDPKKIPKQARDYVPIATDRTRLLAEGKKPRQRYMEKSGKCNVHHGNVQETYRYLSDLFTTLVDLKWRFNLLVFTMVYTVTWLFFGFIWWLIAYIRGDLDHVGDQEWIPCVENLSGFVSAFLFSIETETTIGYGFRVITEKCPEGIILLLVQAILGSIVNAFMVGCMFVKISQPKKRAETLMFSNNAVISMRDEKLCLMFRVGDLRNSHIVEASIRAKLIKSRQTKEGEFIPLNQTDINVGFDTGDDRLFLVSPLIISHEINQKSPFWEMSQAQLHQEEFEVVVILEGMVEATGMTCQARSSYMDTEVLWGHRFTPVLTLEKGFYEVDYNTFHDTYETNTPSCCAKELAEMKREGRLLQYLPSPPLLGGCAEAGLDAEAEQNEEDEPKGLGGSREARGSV

Row | SMILES | EC50 (Kir3.1/Kir3.2) | Emax [1] | Emax [2] | EC50 (Kir3.1/Kir3.4)
1 | Cc1ccc(-c2nnn(CC(=O)Nc3cc(C)nn3C3CCCCC3)n2)cc1 | 111 nM | 86% | 64% | 408 nM
2 | Cc1cc(NC(=O)Cn2nnc(-c3ccccc3)n2)n(C2CCCC2)n1 | 163 nM | 105% | 84% | 612 nM
3 | Cc1cc(NC(=O)Cn2nnc(-c3ccccc3)n2)n(Cc2ccccc2)n1 | 495 nM | 74% | 48% | 848 nM
4 | Cc1cc(NC(=O)Cn2nnc(-c3ccccn3)n2)n(C2CCCCC2)n1 | 14600 nM | 81% | > 41% | > 33000 nM
5 | Cc1cc(NC(=O)Cn2nnc(-c3ccc(Cl)c(C)c3)n2)n(C2CCCCC2)n1 | 712 nM | 89% | 51% | 1510 nM
6 | Cc1cc(NC(=O)Cn2ccc(-c3ccccc3)n2)n(C2CCCCC2)n1 | 511 nM | 88% | 49% | 998 nM
7 | Cc1cc(NC(=O)Cn2nnc(-c3cc(Cl)cc(Cl)c3)n2)n(C2CCCCC2)n1 | 980 nM | 82% | 51% | 2120 nM
8 | Cc1cc(NC(=O)Cc2coc(-c3ccccc3)n2)n(C2CCCCC2)n1 | > 11000 nM | > 69% | 22% | 3980 nM
9 | CC1CC1c1cc(NC(=O)Cn2nnc(-c3ccccc3)n2)n(C2CCCCC2)n1 (stereo not given) | 843 nM | 78% | > 19% | > 10000 nM
10 | Cc1cc(NC(=O)Cn2nnc(-c3ccc(C(F)(F)F)cc3)n2)n(C2CCCCC2)n1 | 241 nM | 94% | 50% | 448 nM
11 | Cc1cc(NC(=O)Cn2nnc(-c3ccnc(F)c3)n2)n(C2CCCCC2)n1 | 441 nM | 95% | 68% | 1340 nM
12 | O=C(Cn1nnc(-c2ccccc2)n1)NC1CC2CCC1C2 (stereo not given) | 1980 nM | 13% | 7% | 2760 nM
13 | Cc1cc(NC(=O)Cn2cc(-c3ccccc3)cn2)n(C2CCCCC2)n1 | 65 nM | 72% | 52% | 348 nM
14 | Cc1cc(NC(=O)Cn2nnc(-c3cccnc3)n2)n(C2CCCCC2)n1 | 1930 nM | 96% | 80% | 4910 nM
15 | Cc1cc(NC(=O)Cc2csc(-c3ccccc3)n2)n(C2CCCCC2)n1 | 1330 nM | 44% | > 18% | > 3000 nM
16 | Cc1cc(NC(=O)Cc2cccc(-c3ccccc3)c2)n(C2CCCCC2)n1 | 370 nM | 72% | > 51% | > 4000 nM
17 | Cc1cc(NC(=O)Cn2nnc(-c3cccc(C(F)(F)F)c3)n2)n(C2CCCCC2)n1 | 183 nM | 86% | 57% | 850 nM
18 | Cc1cc(NC(=O)Cn2nnc(-c3ccccc3)n2)n(C(C)C)n1 | 556 nM | 107% | > 96% | > 4000 nM

Row | SMILES | EC50 (Kir3.1/Kir3.2) | Emax [1] | Emax [2] | EC50 (Kir3.1/Kir3.4)
19 | CCC(C)n1nc(C)cc1NC(=O)Cn1nnc(-c2ccccc2)n1 (stereo not given) | > 5000 nM | > 69% | > 20% | > 10000 nM
20 | Cc1cc(NC(=O)Cc2ccc(-c3ccccc3)cc2)n(C2CCCCC2)n1 | 1660 nM | 69% | 20% | 1820 nM
21 | Cc1cc(NC(=O)Cn2nnc(-c3ccccc3)n2)n(CC(F)(F)F)n1 | > 6000 nM | > 105% | > 97% | > 10000 nM
22 | Cc1cc(NC(=O)Cc2ccc(-c3ccc(Cl)c(Cl)c3)cc2)n(C2CCCCC2)n1 | 4470 nM | 49% | 11% | 4350 nM
23 | Cc1cc(NC(=O)Cc2ncc(-c3ccccc3)o2)n(C2CCCCC2)n1 | 631 nM | 72% | 27% | 1130 nM
24 | Cc1cc(NC(=O)Cn2nnc(-c3ccccc3F)n2)n(C2CCCCC2)n1 | 187 nM | 88% | 60% | 447 nM
25 | Cc1cc(NC(=O)Cc2nnc(-c3ccccc3)s2)n(C2CCCCC2)n1 | > 3000 nM | > 60% | > 21% | > 10000 nM
26 | Cc1cc(NC(=O)Cn2nnc(-c3ccccc3)n2)n(C2CC2)n1 | > 5000 nM | > 78% | > 39% | > 10000 nM
27 | Cc1cc(NC(=O)Cn2nnc(-c3cccc(F)n3)n2)n(C2CCCCC2)n1 | > 3000 nM | > 83% | > 38% | > 10000 nM
28 | COc1ccc(-c2nnn(CC(=O)Nc3cc(C)nn3C3CCCCC3)n2)cc1 | 175 nM | 90% | 65% | 779 nM
29 | COc1cccc(-c2nnn(CC(=O)Nc3cc(C)nn3C3CCCCC3)n2)c1 | 117 nM | 76% | 40% | 299 nM
30 | Cc1cc(NC(=O)Cn2nnc(-c3ccccc3)n2)n(C2CCOCC2)n1 | 435 nM | 115% | 109% | 2040 nM
31 | Cc1cc(NC(=O)Cn2nnc(-c3cccc(C#N)c3)n2)n(C2CCCCC2)n1 | 183 nM | 80% | 55% | 619 nM
32 | Cc1cc(NC(=O)Cn2nnc(-c3ccc(F)cc3)n2)n(C2CCCCC2)n1 | 180 nM | 92% | 74% | 634 nM
33 | O=C(Cn1nnc(-c2ccccc2)n1)Nc1cc(C2CC2)nn1C1CCCCC1 | 271 nM | 45% | 15% | 659 nM
34 | Cc1cc(NC(=O)Cn2nnc(C3CC3)n2)n(C2CCCCC2)n1 | > 3000 nM | > 68% | > 25% | > 10000 nM
35 | Cc1cccc(-c2nnn(CC(=O)Nc3cc(C)nn3C3CCCCC3)n2)c1 | 129 nM | 93% | 63% | 435 nM

— ChEMBL document CHEMBL4422673, “Discovery, synthesis and characterization of a series of (1-alkyl-3-methyl-1H-pyrazol-5-yl)-2-(5-aryl-2H-tetrazol-2-yl)acetamides as novel GIRK1/2 potassium channel activators” (Bioorg Med Chem Lett, 2019)
